Source: PubChem BioAssay AID2060485 (Molecular Pharmacology Branch, DTP, NCI, 2025)
pIC50: −log10 of the molar value. Several values for one entry are separate records, joined by “and”; a condition that tells them apart may be missing. Equal entries are not always repeated.

Tested on: A375 multi-cell spheroids with HUVEC/MSC, viability
Experiment: Anticancer human tumor A375 cell line growth inhibition [GQUAD];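 note: spheroids exposed to compounds for seven days before readout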
Conditions: for viability, T/C: stronger effect = lower value
Text: DNA G-quadruplex Stabilizer Agents in Combinations in Complex Spheroids
A high-throughput screen of multi-cell type tumor spheroids was designed to identify active combinations of DNA G-quadruplex stabilizer agents and targeted small molecules. Complex spheroids include a stromal component modeled by human endothelial cells (HUVEC) and fibroblasts modeled by human mesenchymal stem cells (MSCs). The concentration ranges selected for each drug and investigational agent were based upon clinically achievable concentrations if the clinical Cmax of the agent was known.
Compounds. The drugs and investigational agents: pidnarulex (CX-5461; NSC782164), APTO-253 (NSC789042), BRACO-19 (NSC847499), peposertib (NSC802822), ceralasertib (NSC780249), elimusertib (NSC800525), camonsertib (NSC841442), AZD-1390 (NSC803789), olaparib (NSC753686), talazoparib (NSC767125), ART-558 (NSC835418), sotorasib (NSC818433), MRTX-1133 (NSC836407), SN-38 (NSC673596), topotecan (NSC609699), etoposide (NSC141540), doxorubicin (NSC123127), gemcitabine (NSC613327), 5-fluorouracil (NSC19893), paclitaxel (NSC125973), vemurafenib (NSC761431), panobinostat (NSC761190), R-306465 (JNJ-16241199; NSC773264), adavosertib (NSC754352), TP-3654 (NSC805149), carboplatin (NSC241240), KSQ-4279 (NSC840948), and staurosporine (NSC755774) were obtained from the National Cancer Institute (NCI) Developmental Therapeutics Program Chemical Repository (34). The FDA-approved anticancer drug set is available from the NCI Developmental Therapeutics Program. […] The stock solutions were prepared in dimethyl sulfoxide (DMSO, Sigma-Aldrich, St. Louis, MO, cat. D2650) at 800-fold the tested concentration and stored at -70 degrees C prior to their use. All drugs and investigational agents were tested over a range starting from a high concentration at or near the clinical Cmax and decreasing in half-log increments. If the clinical Cmax for an agent had not been determined, the highest concentration tested was 10 microM.
2.3 Cell Culture. All cells were maintained in an incubator at 37 degrees C and 5% CO2 with 95% humidity. The PDC lines were cultured according to standard operating procedures established by the NCI PDMR. All PDCs were thawed and cultured in Matrigel-coated flasks prepared with a working solution of 1X Ham's F-12 nutrient mix, without supplementation (Invitrogen, cat. 11765054), 100 U/mL penicillin-streptomycin (Invitrogen, cat. 15140122), and 2.5% Matrigel (Corning Inc., cat. 354248) for the first three passages. The 857933-349-R-J2-PDC line was cultured in 6C/Colon 1B media, which includes advanced DMEM/F-12 (Thermo Fisher Scientific, cat. 12634028), 10 mM HEPES (Thermo Fisher Scientific, cat. 15630080), 1X GlutaMAX supplement (Thermo Fisher Scientific, cat. 35050061), 0.1 mg/mL primocin (InvivoGen, cat. ant-pm-2), 10% defined fetal bovine serum, heat inactivated (HyClone Laboratories Inc., cat. SH30070.03HI), 50% L-WRN conditioned media (ATCC, cat. CRL-3276), 1.25 mM N-Acetyl-L-cysteine (Sigma-Aldrich, cat. A9165), 10 mM nicotinamide (Sigma-Aldrich, cat. N0636), 1X B-27 supplement (Thermo Fisher Scientific, cat. 17504044), 1X N-2 supplement (Thermo Fisher Scientific, cat. 17502048), 10 microM Y-27632 dihydrochloride (Tocris Bioscience, cat. 1254), and 50 ng/mL human EGF recombinant protein (Thermo Fisher Scientific, cat. PHG0311). The 485176-168-R4-J1-PDC line was cultured in Panc media, which includes all 6C/Colon 1B media components plus 100 ng/mL human FGF-10 (Thermo Fisher Scientific, cat. 100-26), 500 nM SB-431542 (Selleckchem, cat. S1067), and gastrin (Tocris, cat. 3006).
[…]

CC[C@@]1(O)C(=O)OCc2c1cc1n(c2=O)Cc2cc3c(CN(C)C)c(O)ccc3nc2-1
viability, T/C (compound 0.000999 µM): 104% and 102% and 101%
viability, T/C (compound 0.00316 µM): 105% (2×) and 93.9%
viability, T/C (compound 0.00999 µM): 108% and 96.2% and 102%
viability, T/C (compound 0.0316 µM): 80.7% and 57% and 63%
viability, T/C (compound 0.0999 µM): 24.7% and 19.6% and 22%
viability, T/C (compound 0.316 µM): 14.6% and 9.66% and 10.5%
pIC50 (curve of compound): 7.23 and 7.40 and 7.34

CC(C)n1c(=O)n(C)c2cnc3cc(F)c(-c4ccc(OCCCN5CCCCC5)nc4)cc3c21
viability, T/C (compound 0.0316 µM): 103% and 99.6% and 97.1%
viability, T/C (compound 0.1 µM): 92.8% and 105% and 111%
viability, T/C (compound 0.316 µM): 96.4% and 103% and 99.7%
viability, T/C (compound 1 µM): 97.4% and 108% and 98.7%
viability, T/C (compound 3.16 µM): 102% and 114% and 109%
viability, T/C (compound 10 µM): 94.5% and 85.4% and 97.5%
pIC50 (curve of compound): < 5.00

C=CC(=O)N1CCN(c2nc(=O)n(-c3c(C)ccnc3C(C)C)c3nc(-c4c(O)cccc4F)c(F)cc23)C(C)C1 (stereo not given)
viability, T/C (compound 0.0316 µM): 94.3% and 100% and 93.8%
viability, T/C (compound 0.1 µM): 105% and 91.8% and 94.4%
viability, T/C (compound 0.316 µM): 95.2% and 94.2% and 99%
viability, T/C (compound 1 µM): 101% and 90.2% and 99.8%
viability, T/C (compound 3.16 µM): 109% and 99.3% and 126%
viability, T/C (compound 10 µM): 101% and 119% and 111%
pIC50 (curve of compound): < 5.00

CC1COCCN1c1cc(C2(O)CC3CCC(C2)O3)c2cnn(-c3ccn[nH]3)c2n1 (stereo not given) + Cc1cnc(CNC(=O)c2c(=O)c3ccc(N4CCCN(C)CC4)nc3n3c2sc2ccccc23)cn1
pIC50 (curve of first compound, second compound 0.0316 µM): 6.90
pIC50 (curve of first compound, second compound 0.1 µM): 7.24
pIC50 (curve of first compound, second compound 0.316 µM): > 7.50
pIC50 (curve of first compound, second compound 1 µM): > 7.50
pIC50 (curve of first compound, second compound 3.16 µM): > 7.50
pIC50 (curve of first compound, second compound 10 µM): > 7.50
viability, T/C (second compound 0.0316 µM, first compound 0.0316 µM): 86.1%
viability, T/C (second compound 0.0316 µM, first compound 0.1 µM): 51.7%
viability, T/C (second compound 0.0316 µM, first compound 0.316 µM): 38.3%
viability, T/C (second compound 0.0316 µM, first compound 1 µM): 15.7%
viability, T/C (second compound 0.0316 µM, first compound 3.16 µM): 10.2%
viability, T/C (second compound 0.0316 µM, first compound 10 µM): 7.77%
viability, T/C (second compound 0.1 µM, first compound 0.0316 µM): 57%
viability, T/C (second compound 0.1 µM, first compound 0.1 µM): 42.5%
viability, T/C (second compound 0.1 µM, first compound 0.316 µM): 31.2%
viability, T/C (second compound 0.1 µM, first compound 1 µM): 15.2%
viability, T/C (second compound 0.1 µM, first compound 3.16 µM): 11%
viability, T/C (second compound 0.1 µM, first compound 10 µM): 7.11%
viability, T/C (second compound 0.316 µM, first compound 0.0316 µM): 38%
viability, T/C (second compound 0.316 µM, first compound 0.1 µM): 29.7%
viability, T/C (second compound 0.316 µM, first compound 0.316 µM): 28.9%
viability, T/C (second compound 0.316 µM, first compound 1 µM): 19.1%
viability, T/C (second compound 0.316 µM, first compound 3.16 µM): 10.3%
viability, T/C (second compound 0.316 µM, first compound 10 µM): 7.26%
viability, T/C (second compound 1 µM, first compound 0.0316 µM): 40.9%
viability, T/C (second compound 1 µM, first compound 0.1 µM): 32%
viability, T/C (second compound 1 µM, first compound 0.316 µM): 27.3%
viability, T/C (second compound 1 µM, first compound 1 µM): 14.4%
viability, T/C (second compound 1 µM, first compound 3.16 µM): 10.5%
viability, T/C (second compound 1 µM, first compound 10 µM): 7.81%
viability, T/C (second compound 3.16 µM, first compound 0.0316 µM): 31.9%
viability, T/C (second compound 3.16 µM, first compound 0.1 µM): 27.4%
viability, T/C (second compound 3.16 µM, first compound 0.316 µM): 23.4%
viability, T/C (second compound 3.16 µM, first compound 1 µM): 14.3%
viability, T/C (second compound 3.16 µM, first compound 3.16 µM): 10.1%
viability, T/C (second compound 3.16 µM, first compound 10 µM): 5.41%
viability, T/C (second compound 10 µM, first compound 0.0316 µM): 24.7%
viability, T/C (second compound 10 µM, first compound 0.1 µM): 22.5%
viability, T/C (second compound 10 µM, first compound 0.316 µM): 21.8%
viability, T/C (second compound 10 µM, first compound 1 µM): 13.7%
viability, T/C (second compound 10 µM, first compound 3.16 µM): 9.6%
viability, T/C (second compound 10 µM, first compound 10 µM): 4.53%

COc1cc(C2c3cc4c(cc3C(OC3OC5COC(C)OC5C(O)C3O)C3COC(=O)C23)OCO4)cc(OC)c1O (stereo not given)
viability, T/C (compound 0.0316 µM): 93.3% and 94.2% and 109%
viability, T/C (compound 0.1 µM): 105% (2×) and 118%
viability, T/C (compound 0.316 µM): 93.9% and 92.3% and 76.3%
viability, T/C (compound 1 µM): 65.6% and 63.6% and 58.4%
viability, T/C (compound 3.16 µM): 34% and 34.8% and 33.6%
viability, T/C (compound 10 µM): 24.1% and 21.5% and 21.2%
pIC50 (curve of compound): 5.76 and 5.77 and 5.86
